Laboratory results: US9580513B2, “VHZ for diagnosis and treatment of cancers” (AGENCY FOR SCIENCE, TECHNOLOGY AND RESEARCH (A*STAR), priority 2008, dated 2017)

T1: VHZ-GST (Homo sapiens, UniProt Q9BVJ7)
T1 construct: made in house
T1 sequence (Q9BVJ7 1-150): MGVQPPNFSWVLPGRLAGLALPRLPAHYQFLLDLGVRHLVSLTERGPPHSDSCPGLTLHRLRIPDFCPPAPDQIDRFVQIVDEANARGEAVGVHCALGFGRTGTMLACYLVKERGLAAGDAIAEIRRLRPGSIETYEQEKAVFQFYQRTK

B1: VHZ human/mouse Chimeric mAb (Clone #209): mouse variable regions of hybridoma clone #209 (SEQ ID NO: 4 and 5) joined with human IgG1 constant region (antibody, listed as Mus musculus, V domains shown)
VH: LVDMDSRLNLVFLVLILKGVQCDVQLVESGGGLVQPGGSRKLSCAASGFTFSSFGMHWVRQAPEKGLEWVAYISSGSSTIYYADTVKGRFTISRDNPKNTLFLQMTSLRSEDTAMYYCARWQTARATRGYAMDYWGQGTSVTVSS
VL: VMTQSHKFMSTSVGDRVSITCKASQDVNTAVAWYQQKPGQSPKLLIYSASYRFTGVPDLFTGSGSGTDFTFTINSVQAEDLAVYYCQQHYSSPWTFGGGTKLEIKRADAAPTVSIFHHPVSLG
modifications: human IgG1 constant regions lacking entries

How the values were obtained:
VHZ-GST = molecular target: T1, VHZ-GST; experiment: Tyrosine phosphatase assay (ENZCHEK kit, fluorogenic substrate); type: biochemical; conditions: 10 μM sodium orthovanadate added to the reaction; 0.675 picomoles VHZ-GST
Experimental: FIG. 3A. We test each protein (0.675 picomoles) for its PTPase activity.
The ENZCHEK™ kit (Invitrogen, R22065) is used. As per the manufacturer's protocol, the fluorogenic substrate is reconstituted in the assay wells with buffer; the desired potential PTPases (0.675 picomole for each protein: VHZ-GST, VHZ-GST+Phosphatase inhibitor, VHZ(C95S)-GST, and control GST) are added to the wells and incubated 30 min or 90 min respectively. The fluorescence is then quantified using a Gemini XPS microplate spectrofluorometer (Molecular Devices). Fluorescence is measured at 10 minute intervals at the excitation and emission wavelengths of 358 and 452 nm, respectively. The phosphatase inhibitor sodium orthovanadate (10 μM) is used in the assay as a negative control.
The PTPase activities of VHZ-GST, indicated by increasing blue fluorescence (excitation/emission maxima ˜358/452 nm), are abolished either by mutation of Cys 95 to Ser or by adding phosphatase inhibitor (sodium orthovanadate) into the assay (FIG. 3A, Panel A).

[1] = system: HCT116 colon cancer cells that express VHZ; experiment: Formation of tumours by HCT116 colon cancer cells injected via the tail vein of nude mice; type: in vivo; conditions: 1×10^6 HCT116 cells via tail vein on day 1; chimeric mAb into tail vein from day 3, then two administrations weekly; compared with PBS (untreated)
Description: FIG. 15B. Either PBS (untreated) or chimeric mAb (treated) is administrated into tail vein starting the first treatment on day 3; followed by two administrations weekly. Experiment periods: Top two animals starting 11 Feb.-2 Apr. 2009 bottom two animals starting 11 Feb.-13 Apr. 2009.
All animal studies have been approved by the Institutional Review Board of the IMCB. We follow strictly rules and policies of the Animal Facility Center of The Agency for Science, Technology and Research (A* STAR), Singapore. Nine-week old nude mice (Jackson Labs, USA) are used.
By western blot we confirm that HCT116 colon cancer cell line is VHZ positive comparing with MDCK cell line. 1×10^6 HCT116 cancer cells were injected into the circulation of nude mice via the tail vein on day 1.
Either PBS (untreated) or chimeric mAb (treated) was administrated into tail vein starting the first treatment on day 3; followed by two administrations weekly. Experiment periods: Top two animals starting 11 Feb.-2 Apr. 2009 bottom two animals starting 11 Feb.-13 Apr. 2009.

| Molecule | PTPase activity of VHZ (VHZ-GST) | formation of tumours by HCT116 colon cancer cells [1] |
| --- | --- | --- |
| [Na+].[Na+].[Na+].[O]=[V]([O-])([O-])[O-] [sodium orthovanadate] | completely abolished | – |
| B1 | – | effectively inhibits the formation of tumours |
